Laboratory results reported in BindingDB's records for doi:10.1111/j.1747-0285.2007.00535.x (Abbott Laboratories, 2007).

Target: Heat shock protein HSP 90-alpha (Homo sapiens, UniProt P07900)
Assay: FRET Assay
Conditions: pH 7.5; 25 °C

Ki	SMILES
170 nM	Cc1cc(-c2ccc(Cl)cc2Cl)nc(N)n1 [HSP90 Inhibitor, 4]
60 nM	Nc1nc(Cl)cc(-c2ccc(Cl)cc2Cl)n1 [HSP90 Inhibitor, 5]
4000 nM	Cc1cc(C=Cc2ccccc2/C=N/N2CCOC2=O)nc(N)n1 [HSP90 Inhibitor, 7]
